# According to ChEMBL document CHEMBL1136420, “Comparison of library screening techniques used in the development of dsDNA ligands” (Bioorg Med Chem Lett, 2003):
# Numbered stars: 1 amine (or outer) side, 2 acyl side, 3 side chain; on linkers, the order of the positions; unused ones are H or OH. Square brackets hold non-standard residues; d marks the D form. Peptide text beside a SMILES is read from it. Ala(2,4-dioxoquinazolin-3-yl) = N[C@@H](Cn1c(=O)[nH]c2ccccc2c1=O)C(=O)O; Ala(uracil-1-yl) = N[C@@H](Cn1ccc(=O)[nH]c1=O)C(=O)O; X2 = Cc1cn(C[C@H](N[*:1])C(=O)[*:2])c(=O)[nH]c1=O; X3 = Nc1ccn(C[C@H](N[*:1])C(=O)[*:2])c(=O)n1; X1 = Nc1ncnc2c1ncn2C[C@H](N[*:1])C(=O)[*:2]; 2Thi = N[C@@H](Cc1cccs1)C(=O)O; Sar = CNCC(=O)O
# Target: Nucleic Acid
# Test: Dissociation constant using ethidium-bromide displacement test
# Assay type: nucleic-acid assay
row,SMILES,Kd
1,"CC(=O)N[C@@H](CCCN=C(N)N)C(=O)N[C@@H](Cn1ccc(=O)[nH]c1=O)C(=O)N(C)CC(=O)N[C@@H](Cn1c(=O)[nH]c2ccccc2c1=O)C(=O)N[C@@H](Cn1c(=O)[nH]c2ccccc2c1=O)C(=O)N[C@@H](Cn1ccc(=O)[nH]c1=O)C(=O)N[C@@H](CCCN=C(N)N)C(N)=O (Ac-R[Ala(uracil-1-yl)][Sar][Ala(2,4-dioxoquinazolin-3-yl)][Ala(2,4-dioxoquinazolin-3-yl)][Ala(uracil-1-yl)]R-NH2)",610 µM
2,"CC(=O)N[C@@H](CCCN=C(N)N)C(=O)N[C@@H](Cn1ccc(=O)[nH]c1=O)C(=O)N(C)CC(=O)N[C@@H](Cn1c(=O)[nH]c2ccccc2c1=O)C(=O)N[C@@H](Cn1c(=O)[nH]c2ccccc2c1=O)C(=O)N[C@@H](Cn1cnc2c(N)ncnc21)C(=O)N[C@@H](CCCN=C(N)N)C(N)=O (Ac-R[Ala(uracil-1-yl)][Sar][Ala(2,4-dioxoquinazolin-3-yl)][Ala(2,4-dioxoquinazolin-3-yl)][X1]R-NH2)",390 µM
3,"CC(=O)N[C@@H](CCCN=C(N)N)C(=O)N[C@@H](Cn1ccc(=O)[nH]c1=O)C(=O)N(C)CC(=O)N[C@@H](Cn1c(=O)[nH]c2ccccc2c1=O)C(=O)N[C@@H](Cn1c(=O)[nH]c2ccccc2c1=O)C(=O)N[C@@H](Cn1cc(C)c(=O)[nH]c1=O)C(=O)N[C@@H](CCCN=C(N)N)C(N)=O (Ac-R[Ala(uracil-1-yl)][Sar][Ala(2,4-dioxoquinazolin-3-yl)][Ala(2,4-dioxoquinazolin-3-yl)][X2]R-NH2)",490 µM
4,"CC(=O)N[C@@H](CCCN=C(N)N)C(=O)N[C@@H](Cn1ccc(=O)[nH]c1=O)C(=O)N(C)CC(=O)N[C@@H](Cn1c(=O)[nH]c2ccccc2c1=O)C(=O)N[C@@H](Cn1c(=O)[nH]c2ccccc2c1=O)C(=O)N[C@@H](Cn1ccc(N)nc1=O)C(=O)N[C@@H](CCCN=C(N)N)C(N)=O (Ac-R[Ala(uracil-1-yl)][Sar][Ala(2,4-dioxoquinazolin-3-yl)][Ala(2,4-dioxoquinazolin-3-yl)][X3]R-NH2)",630 µM

# Stronger by Kd, values ahead:
row,Kd,SMILES
1,230 µM,"CC(=O)N[C@@H](CCCN=C(N)N)C(=O)N[C@@H](Cn1ccc(=O)[nH]c1=O)C(=O)N(C)CC(=O)N[C@@H](Cn1c(=O)[nH]c2ccccc2c1=O)C(=O)N[C@@H](Cn1c(=O)[nH]c2ccccc2c1=O)C(=O)N[C@@H](Cc1cccs1)C(=O)N[C@@H](CCCN=C(N)N)C(N)=O (Ac-R[Ala(uracil-1-yl)][Sar][Ala(2,4-dioxoquinazolin-3-yl)][Ala(2,4-dioxoquinazolin-3-yl)][2Thi]R-NH2)"
2,220 µM,"CC(=O)N[C@@H](CCCN=C(N)N)C(=O)N[C@@H](Cn1ccc(=O)[nH]c1=O)C(=O)N(C)CC(=O)N[C@@H](Cn1cc(C)c(=O)[nH]c1=O)C(=O)N[C@@H](Cn1c(=O)[nH]c2ccccc2c1=O)C(=O)N[C@@H](Cn1cnc2c(N)ncnc21)C(=O)N[C@@H](CCCN=C(N)N)C(N)=O (Ac-R[Ala(uracil-1-yl)][Sar][X2][Ala(2,4-dioxoquinazolin-3-yl)][X1]R-NH2)"
3,91 µM,"CC(=O)N[C@@H](CCCN=C(N)N)C(=O)N[C@@H](Cn1ccc(=O)[nH]c1=O)C(=O)N(C)CC(=O)N[C@@H](Cn1c(=O)[nH]c2ccccc2c1=O)C(=O)N[C@@H](Cn1c(=O)[nH]c2ccccc2c1=O)C(=O)N[C@@H](Cn1c(=O)[nH]c2ccccc2c1=O)C(=O)N[C@@H](CCCN=C(N)N)C(N)=O (Ac-R[Ala(uracil-1-yl)][Sar][Ala(2,4-dioxoquinazolin-3-yl)][Ala(2,4-dioxoquinazolin-3-yl)][Ala(2,4-dioxoquinazolin-3-yl)]R-NH2)"
